Reference: US7432397B2, “Imaging compounds” (Hammersmith Imanet Ltd., priority 2002, dated 2008)

Assay: Metabolite analysis of plasma and brain tissue (SPE/HPLC)
Type: in vivo, rat
Conditions: for parent compound as share of the radioactivity in brain: rat brain; for percentage of radioactivity associated with parent: rat plasma
Method: Sixteen adult male Sprague-Dawley rats (body weight 250-320 g: mean±SD=288±25 g) were used in 5 separate experiments. Each rat was injected with ˜13 MBq Compound 1, at a specific activity of […], via a previously catheterised tail vein. The associated stable compound was 0.5±0.2 nmol/kg. Discrete samples of arterial blood were collected from 9 of the rats via a previously catheterised tail artery.
Plasma samples were injected directly onto a solid phase extraction (SPE) column (C18), with di-ammonium hydrogen phosphate (0.1 M) mobile phase, and the retained radioactivity subsequently injected onto a reverse phase HPLC column (300×7.8 mm i.d., p-Bondapak C18) with a mobile phase of methanol:0.1 M ammonium formate, […]. The eluates were monitored for radioactivity and absorbance at 254 nm. Brain tissues were assayed using the same methodology, excepting that the samples were homogenised and de-proteinated prior to injection onto the HPLC column.

SMILES: CSc1cccc(N([11CH3])C(=N)Nc2cc(SC)ccc2Cl)c1 [Compound 1, (N-(2-chloro-5-(methylthio)phenyl)-N′-(3-methylthio)phenyl)-N′-[N-methyl-^11C]-methylguanidine]
- parent compound as share of the radioactivity in brain (20 minutes after i.v. injection): approximately 95%
- parent compound as share of the radioactivity in brain (70 minutes after i.v. injection): ~90%
- percentage of radioactivity associated with parent (10 min after i.v. injection): ~50%
- percentage of radioactivity associated with parent (90 min after i.v. injection): ~5%
- metabolism and clearance from the plasma (rat, i.v.): rapid metabolism and clearance
